How the values were obtained:
thrombus = assay: Arteriovenous Shunt Model; type: in vivo, dogs; settings: mean ± SEM; for Arterial Conditions T/B ratio / Venous Conditions T/B ratio: T/B = thrombus/background; for Arterial Conditions Uptake (% id/g) / Venous Conditions Uptake (% id/g): extracorporeal A-V shunt, 1 hr shunt period
Experimental: Arteriovenous Shunt Model: Adult mongrel dogs of either sex (9-13 kg) were anesthetized with pentobarbital sodium (35 mg/kg, i.v.) and ventilated with room air via an endotracheal tube (12 strokes/min,25 ml/kg). For arterial pressure determination, the left carotid artery was cannulated with a saline-filled polyethylene catheter (PE-240) and connected to a Statham pressure transducer (P23ID; Oxnard, Calif.). Mean arterial blood pressure was determined via damping the pulsatile pressure signal. Heart rate was monitored using a cardiotachometer (Biotach, Grass Quincy, Ma.) triggered from a lead II electrocardiogram generated by limb leads. A jugular vein was cannulated (PE-240) for drug administration. The both femoral arteries and femoral veins were cannulated with silicon treated (Sigmacote, Sigma Chemical Co. St Louis, Mo.), saline filled polyethylene tubing (PE-200) and connected with a 5 cm section of silicon treated tubing (PE-240) to form an extracorporeal arterio-venous shunts (A-V). Shunt patency was monitored using a doppler flow system (model VF-1, Crystal Biotech Inc, Hopkinton, Ma.) and flow probe (2-2.3 mm, Titronics Med. Inst., Iowa City, Iowa) placed proximal to the locus of the shunt. All parameters were monitored continuously on a polygraph recorder (model 7D Grass) at a paper speed of […] or 25 mm/sec.
On completion of a 15 min post surgical stabilization period, an occlusive thrombus was formed by the introduction of a thrombogenic surface (4-0 braided silk thread, 5 cm in length, Ethicon Inc., Somerville, N.J.) into the shunt one shunt with the other serving as a control. Two consecutive 1 hr shunt periods were employed with the test agent administered as an infusion over 5 min beginning 5 min before insertion of the thrombogenic surface. At the end of each 1 hr shunt period the silk was carefully removed and weighed and the % incorporation determined via well counting. Thrombus weight was calculated by subtracting the weight of the silk prior to placement from the total weight of the silk on removal from the shunt. Arterial blood was withdrawn prior to the first shunt and every 30 min thereafter for determination of blood clearance, whole blood collagen-induced platelet aggregation, thrombin-induced platelet degranulation (platelet ATP release), prothrombin time and platelet count. Template bleeding time was also performed at 30 min intervals.

venous thrombus = assay: Canine Deep Vein Thrombosis Model; type: in vivo, dogs; settings: 1 mCi/Kg, i.v., given at reflow; jugular vein thrombi; 15, 60 and 120 min post-administration
Experimental: Canine Deep Vein Thrombosis Model: This model incorporates the triad of events (hypercoagulatible state, period of stasis, low shear environment) essential for the formation of a venous fibrin-rich actively growing thrombus. The procedure was as follows: Adult mongrel dogs of either sex (9-13 kg) were anesthetized with pentobarbital sodium (35 mg/kg,i.v.) and ventilated with room air via an endotracheal tube (12 strokes/min, 25 ml/kg). For arterial pressure determination, the right femoral artery was cannulated with a saline-filled polyethylene catheter (PE-240) and connected to a Statham pressure transducer (P23ID; Oxnard, Calif.). Mean arterial blood pressure was determined via damping the pulsatile pressure signal. Heart rate was monitored using a cardiotachometer (Biotach, Grass Quincy, Ma.) triggered from a lead II electrocardiogram generated by limb leads. The right femoral vein was cannulated (PE-240) for drug administration. A 5 cm segment of both jugular veins was isolated, freed from fascia and circumscribed with silk suture. A microthermister probe was placed on the vessel which serves as an indirect measure of venous flow. […] The agent was infused during the first 5 min of reflow and the rate of incorporation monitored using gamma scintigraphy.

| Substance | Arterial Conditions T/B ratio (thrombus) | Arterial Conditions Uptake (% id/g) (thrombus) | Venous Conditions T/B ratio (thrombus) | Venous Conditions Uptake (% id/g) (thrombus) | uptake in venous thrombus (typical images, gamma scintigraphy) (venous thrombus) |
| --- | --- | --- | --- | --- | --- |
| Cyclo-((^125 I)D-Tyr-NMeArg-Gly-Asp-Mamb) [Example 8] | 173 ± 22 | 1.81 ± 0.18 % id/g | 19 ± 9 | 0.25 ± 0.15 % id/g | – |
| Cyclo-(D-Val-NMeArg-Gly-Asp-Mamb([^99m TcO(MA-MAMA)]-5-Aca)) [Example 32] | 102 | 7.4 % id/g | 0 | 0 % id/g | – |
| Cyclo-(D-Val-NMeArg-Gly-Asp-Mamb([^99m TcO(MeMAG2 gaba)]^- -5-Aca)) [Example 23] | 195 ± 39 | 5.41 ± 0.70 % id/g | 7 ± 0.4 | 0.21 ± 0.05 % id/g | – |
| Cyclo-(D-Val-NMeArg-Gly-Asp-Mamb([^99m TcO(mapt)]^- -5-Aca)) [Example 19] | 142 ± 24 | 5.75 ± 1.28 % id/g | 13 ± 4 | 0.58 ± 0.22 % id/g | uptake in a rapidly growing venous thrombus |
| Cyclo-([([^99m TcO(mapt)]^- -5-Aca)D-Lysσ-NMeArg-Gly-Asp-Mamb) [Example 21] | 113 ± 1 | 1.6 ± 0.12 % id/g | 4.0 ± 2 | 0.06 ± 0.03 % id/g | – |
| Cyclo-([[^99m TcO(MeMAG2 gaba)]^- -D-Lys]-NMeArg-Gly-Asp-Mamb) [Example 22] | 158 ± 5 | 1.28 ± 0.44 % id/g | 7 ± 4 | 0.045 ± 0.02 % id/g | – |
| Cyclo-([[^99m TcO(mapt)]^- -D-Lys]-NMeArg-Gly-Asp-Mamb) [Example 18] | 147 ± 44 | 0.47 ± 0.12 % id/g | 13 ± 3 | 0.04 ± .01 % id/g | – |
| Cyclo-([^111 In-DTPA-D-Lys]-NMeArg-Gly-Asp-Mamb) [Example 16] | 128 ± 24 | 0.95 ± 0.29 % id/g | 14 | 0.08 % id/g | – |
| [(^125 I)N-3-(4-hydroxyphenyl)propionyl]-Cyclo-(D-Lys-NMeArg-Gly-Asp-Mamb) [Example 9] | 44 ± 4 | 2.60 ± .005 % id/g | 8 ± 3 | 0.45 ± 0.11 % id/g | – |
| ^99m Tc((EDDA)-Cyclo(D-Val-NMeArg-Gly-Asp-Mamb(hydrazino-nicotinyl-5-Aca)) [Example 13] | 163 ± 14 | 8.50 ± 0.20 % id/g | 33 ± 27 | 1.64 ± 1.32 % id/g | – |
| ^99m Tc(tricine)2 -Cyclo(D-Val-NMeArg-Gly-Asp-Mamb(hydrazino-nicotinyl-5-Aca)) [Example 12] | 111 ± 6 | 6.15 ± 0.66 % id/g | 7.0 ± 2 | 0.46 ± 0.19 % id/g | uptake in a rapidly growing venous thrombus |
| ^99m TcO(MAMA)-Cyclo-(D-Val-NMeArg-Gly-Asp-Mamb(5-Aca)) [Example 10] | 221 ± 16 | 5.00 ± 0.51 % id/g | 7 ± 0.6 | 0.16 ± 0.02 % id/g | – |
